Values quoted from earlier work, collected in patent US8846083B2, “Method for the diffusion of molecules which are insoluble in an aqueous medium and composition using said method” (priority 2004, dated 2014).

How the values were obtained:
[1] = administered via the digestive tract
[2] = administered via the digestive tract; remark: listed apart in the source

Row | time at which the maximum concentration of the active ingredient in the blood is reached [1] | SMILES | duration of pharmacological effects [2]
1 | 90 min | CC(C)Cc1ccc(C(C)C(=O)O)cc1 (stereo not shown) [ibuprofen] | approximately 2 hour
2 | 75 min | CC(C(=O)O)c1cccc(C(=O)c2ccccc2)c1 (stereo not shown) [ketoprofen] | 1.5 hour
